This is an account of results in patent publication US20240197727A1, “SOLID DISPERSIONS COMPRISING AMORPHOUS PIMOBENDAN AND ONE OR MORE STABILIZING POLYMERS” (Boehringer Ingelheim Vetmedica GmbH, priority 2022, published 2024).

As a reminder, the solubility (thermodynamic) is the concentration in solution at equilibrium with solid.

Data set [1] can be described thus: Thermodynamic (equilibrium) solubility at 37° C., immersed UV probes. The format is physicochemical. The following applies: aqueous buffer, thermodynamic from solid.
The conditions of data set [2]: pH 5; cited from earlier work.

Values after ≈ are worked out from the molar mass of the structure shown.

With `COc1ccc(-c2nc3ccc(C4=NNC(=O)CC4C)cc3[nH]2)cc1` (stereo not drawn) [Crystalline pimobendan], the figures for the solubility (thermodynamic) in data set [1] (pH 3.0 (maleic acid buffer)) and in data set [1] (pH 6.5 (phosphate buffer)) were 19.5 µg/mL (≈ 58.3 µM) and 0.3 µg/mL (≈ 0.897 µM), respectively. The “Solubility (amount that dissolves) in water” value in data set [2] is given as “about 1 mg/liter”.
